Results reported in patent US8252843B2, “Compounds for the treatment of AIDS and other viral diseases” (Novaremed Limited, priority 2004, dated 2012).

Tests used:
PHA-activated PBMCs [1] = assay: Example 10: [3H]-thymidine proliferation of PHA-activated PBMCs, compound diluted in DMSO; format: cell-based, human; conditions: for inhibition relative to the controls: DMSO 0.25%; for inhibitory effect on PBMCs (summary of Examples 9 and 10): 100 and 50 μg/ml (61S), 100, 50 and 25 (74S)
Protocol: (§1) Human PBMCs were prepared from a blood bank and plated out at a concentration of 10^5 cells per well in a standard 96-well plate. PHA was added to each well at a concentration of 10 μg/ml together with AV 61S or PPG-7 (both in PBS) at concentrations of 50 μg/ml, 1 μg/ml, 100 ng/ml, 1 ng/ml and 100 pg/ml respectively for AV 61S and 50 μg/ml, 1 μg/ml and 10 ng/ml for PPG-7. The cells were then incubated for 7 days. [3H]-thymidine (NET-027 Thymidine [methyl-3H] from NEN 6.7 Ci/mmol Batch 3106446) was added to each well 48 hours after plating at a concentration of 1 mCi/well; a second dose was added to each well 18 hours before the end of the experiment. The cells were then harvested and counted for 1 min./sample.
Example 9 was repeated using separately compounds AV 61S, AV 61R and AV 74S and AV 74R. In each case the test compound was diluted in DMSO to a final concentration of 0.25%. A single dose of [3H]-thymidine (NET-027 Thymidine [methyl-3H] from NEN 6.7 Ci/mmol Batch 3106446) was added to each well 18 hours before the end of the experiment.

PHA-activated PBMCs [2] = assay: Example 9: [3H]-thymidine proliferation of PHA-activated PBMCs, compound in PBS; format: cell-based, human; conditions: 50 μg/ml, 7 days, PHA 10 μg/ml
Protocol: as §1
The controls were medium alone and CsA (1 mg in 1 ml ethanol).

PBMC cells = assay: Toxicity against PBMC cells by Alamar Blue reagent; conditions: 24 h and 48 h incubation
Protocol: Human PBMC cells were obtained from a blood bank and plated out on a standard 96-well plate at a concentration of 10^5 cells/well. PHA (10 μg/ml) and AV 61S (or AV 74S) at different dilutions in DMSO of 100 μg/ml, 50 μg/ml, 25 μg/ml, 10 μg/ml and 1 μg/ml were added simultaneously to each well. The cells were incubated for 24 hours.
After 24 hours, Alamar Blue reagent was added up to 10% of the total well volume.
The controls were medium only and CsA (1 mg/1 ml EtOH).
The contents of each well were then assayed 1 hour, 3 hours and 6 hours after addition of Alamar Blue by fluorescence in the manner known to those skilled in the art to determine the viability of the PBMCs.

Substance: (S) 2-N (3-O-polypropyleneglycol)propylbenzene)-3-(4-hydroxyphenyl)propylamide [AV 61S]
- inhibition relative to the controls (PHA-activated PBMCs [1]; 50 μg/ml): about 49%
- inhibition relative to the controls (PHA-activated PBMCs [1]; 100 μg/ml): about 97%
- inhibitory effect on PBMCs (summary of Examples 9 and 10) (PHA-activated PBMCs [1]): inhibitory effect
- inhibition relative to the controls (PHA-activated PBMCs [2]): 60%

Substance: (S) 2-N (3-O-(polypropyleneglycol)-1-propyl-4-hydroxybenzene)-3-phenylpropylamide [AV 74S]
- toxicity (Alamar Blue dyeing) (PBMC cells; 100 μg/ml): same activity and toxicity pattern as Cyclosporine (CsA)
- toxicity (Alamar Blue dyeing) (PBMC cells; all concentrations 1-100 μg/ml except AV 74S at 100 μg/ml): non-toxic effect
- inhibition relative to the controls (PHA-activated PBMCs [1]; 50 μg/ml): 81%
- inhibition relative to the controls (PHA-activated PBMCs [1]; 100 μg/ml): 100%
- inhibitory effect on PBMCs (summary of Examples 9 and 10) (PHA-activated PBMCs [1]): inhibitory effect
